Read-outs that look alike come from different tables or passages of the source.
Experiments:
[1] = target: T1, N-terminally FLAG-tagged PARP2 (amino acids 1-583) (Homo sapiens, UniProt Q9UGN5); experiment: PARP2 probe displacement HTRF assay; assay type: binding; conditions: binned Kd
T1 construct: N-terminally FLAG-tagged PARP2 (amino acids 1-583)
Procedure: Data analysis was performed identical as for PARP1.

[2] = target: T2, full length N-terminally FLAG-tagged PARP1 (Homo sapiens, UniProt P09874); experiment: PARP1 probe displacement HTRF assay; conditions: for Selectivity: PARP1 over PARP2, ratio Kd (PARP2)/Kd (PARP1), probe displacement HTRF; for Kd: binned Kd, PARP1 probe displacement HTRF
[3] = target: T2, full length N-terminally FLAG-tagged PARP1; experiment: PARP1 biochemical DELFIA assay (auto-PARylation); set-up: recombinant full length human N-terminally FLAG-tagged PARP1; conditions: binned IC50, PARP1 biochemical DELFIA assay

T2 sequence (P09874 whole entry): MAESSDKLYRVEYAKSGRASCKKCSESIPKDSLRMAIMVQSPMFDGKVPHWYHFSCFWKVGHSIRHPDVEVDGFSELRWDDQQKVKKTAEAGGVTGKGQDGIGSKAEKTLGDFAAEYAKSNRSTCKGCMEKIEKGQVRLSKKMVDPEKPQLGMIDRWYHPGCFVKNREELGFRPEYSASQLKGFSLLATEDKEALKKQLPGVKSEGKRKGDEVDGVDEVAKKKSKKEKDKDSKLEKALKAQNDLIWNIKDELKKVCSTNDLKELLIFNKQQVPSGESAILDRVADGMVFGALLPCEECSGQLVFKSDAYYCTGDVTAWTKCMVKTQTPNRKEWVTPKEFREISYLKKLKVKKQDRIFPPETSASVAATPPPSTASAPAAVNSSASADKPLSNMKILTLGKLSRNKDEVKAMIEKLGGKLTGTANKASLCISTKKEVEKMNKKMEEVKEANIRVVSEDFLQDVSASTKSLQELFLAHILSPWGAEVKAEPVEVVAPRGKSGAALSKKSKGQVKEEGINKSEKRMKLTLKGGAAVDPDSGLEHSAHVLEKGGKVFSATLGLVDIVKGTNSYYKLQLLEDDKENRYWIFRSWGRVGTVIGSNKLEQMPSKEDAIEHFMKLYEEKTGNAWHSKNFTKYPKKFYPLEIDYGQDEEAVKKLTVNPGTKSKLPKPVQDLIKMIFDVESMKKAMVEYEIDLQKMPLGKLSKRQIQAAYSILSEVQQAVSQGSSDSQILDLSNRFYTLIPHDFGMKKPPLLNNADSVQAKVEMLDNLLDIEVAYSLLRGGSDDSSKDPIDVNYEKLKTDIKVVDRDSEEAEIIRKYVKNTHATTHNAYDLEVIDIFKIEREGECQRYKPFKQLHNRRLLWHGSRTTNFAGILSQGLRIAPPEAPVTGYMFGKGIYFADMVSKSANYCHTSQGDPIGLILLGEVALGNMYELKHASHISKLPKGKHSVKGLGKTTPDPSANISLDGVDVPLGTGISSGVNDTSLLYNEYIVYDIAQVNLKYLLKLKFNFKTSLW
T1 sequence (Q9UGN5 whole entry, the tested form may be a part): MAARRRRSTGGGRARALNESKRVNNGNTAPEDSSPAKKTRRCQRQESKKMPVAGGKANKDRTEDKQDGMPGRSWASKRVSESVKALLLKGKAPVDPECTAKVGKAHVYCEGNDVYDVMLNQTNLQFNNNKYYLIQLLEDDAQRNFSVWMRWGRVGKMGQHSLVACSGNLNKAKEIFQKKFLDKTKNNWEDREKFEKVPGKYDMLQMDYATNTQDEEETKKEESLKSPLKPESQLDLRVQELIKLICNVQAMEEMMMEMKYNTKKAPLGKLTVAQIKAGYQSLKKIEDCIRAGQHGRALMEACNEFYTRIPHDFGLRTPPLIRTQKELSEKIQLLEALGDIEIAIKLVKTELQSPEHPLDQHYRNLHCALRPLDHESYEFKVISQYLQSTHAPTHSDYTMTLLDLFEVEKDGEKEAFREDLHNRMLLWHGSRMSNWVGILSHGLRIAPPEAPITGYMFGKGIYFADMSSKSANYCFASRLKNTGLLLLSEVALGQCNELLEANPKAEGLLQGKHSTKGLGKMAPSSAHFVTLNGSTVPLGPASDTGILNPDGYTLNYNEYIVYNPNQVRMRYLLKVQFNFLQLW

SMILES | Kd ([1]; PARP2 probe displacement HTRF) [nM] | Kd ([2]; read-out: PARP1 HTRF) [nM] | IC50 [3] [nM] | Kd ([2]; PARP1 HTRF) [nM] | Kd ([1]; probe displacement HTRF) [nM] | Selectivity [2]
CNC(=O)c1ccc(N2CCC(N3CCC(c4nc5cc(Cl)ccc5c(=O)[nH]4)C3)CC2)cn1 (single isomer, unassigned) [Compound 87b] | 1000 to 10000 | < 10 | – | – | – | +++ (+++ indicate a value of at least 100)
O=c1[nH]c(C2CCCN(C3CCC(F)(F)CC3)C2)nc2ccccc12 (single isomer, unassigned) [Compound 3b] | – | – | 100 to 1000 | – | – | –
O=c1[nH]c(C2CCN(C3CCN(c4ccccc4)CC3)C2)nc2ccccc12 (single isomer, unassigned) [Compound 32b] | – | – | 100 to 1000 | – | – | –
CNC(=O)c1ccc(N2CCC(N3CCC(c4ncc(C)c(=O)[nH]4)C3)CC2)cn1 (single isomer, unassigned) [Compound 35a] | – | – | 100 to 1000 | – | – | –
CNC(=O)c1ccc(N2CCC(N3CCC(c4nc5ccncc5c(=O)[nH]4)C3)CC2)cn1 (single isomer, unassigned) [Compound 81b] | > 10000 | 10 to 100 | – | – | – | +++ (+++ indicate a value of at least 100)
CNC(=O)c1ccc(N2CCC(N3CCCC(c4nc5ccccc5c(=O)[nH]4)C3)CC2)nc1 (single isomer, unassigned) [Compound 83a] | 1000 to 10000 | 100 to 1000 | – | – | – | − (− indicates a value of less than 10)
CNC(=O)c1ccc(N2CCC(N3CCCC(c4nc5cccc(F)c5c(=O)[nH]4)C3)CC2)cn1 (single isomer, unassigned) [Compound 88a] | 100 to 1000 | 100 to 1000 | – | – | – | − (− indicates a value of less than 10)
CNC(=O)c1ccc(N2CCC(N3CCCC(c4nc5ccccc5c(=O)[nH]4)C3)CC2)cc1 (single isomer, unassigned) [Compound 82b] | > 10000 | 10 to 100 | – | – | – | ++ (++ indicates a value of 50 to less than 100)
CNC(=O)c1ccc(N2CCC(N3CCC4CC4(c4nc5ccccc5c(=O)[nH]4)C3)CC2)cn1 (single isomer, unassigned) [Compound 90b] | 1000 to 10000 | 100 to 1000 | – | – | – | + (+ indicates a value of 10 to less than 50)
CNC(=O)c1ccc(N2CCC(N3CCC(c4cc5c(F)cncc5c(=O)[nH]4)C3)CC2)c(F)n1 (single isomer, unassigned) [Compound 343b, 6-fluoro-5-(4-(3-(5-fluoro-1-oxo-1,2-dihydro-2,7-naphthyridin-3-yl)pyrrolidin-1-yl)piperidin-1-yl)-N-methylpicolinamide] | – | – | – | – | 1000 to 10000 | –
CNC(=O)c1ccc(N2CCC(N3CCC(c4nc5cccnc5c(=O)[nH]4)C3)CC2)cn1 (single isomer, unassigned) [Compound 77a] | > 10000 | 100 to 1000 | – | – | – | + (+ indicates a value of 10 to less than 50)
O=c1[nH]c(C2CCN(C3CCN(c4ccc(-c5ncc[nH]5)cc4)CC3)C2)nc2ccccc12 (single isomer, unassigned) [Compound 76a] | 100 to 1000 | 10 to 100 | – | – | – | − (− indicates a value of less than 10)
CNC(=O)c1ccc(N2CCC(N3CCC(c4cc5ccc(C(F)(F)F)cc5c(=O)[nH]4)C3)CC2)cn1 (racemic) [Compound 177rac] | > 10000 | < 10 | – | – | – | +++ (+++ indicate a value of at least 100)
CNC(=O)c1ccc(N2CCC(N3CCCC(c4nc5cccc(F)c5c(=O)[nH]4)C3)CC2)cn1 (single isomer, unassigned) [Compound 88b] | 1000 to 10000 | < 10 | – | – | – | +++ (+++ indicate a value of at least 100)
CCN1CCCc2c1nc(C13CC(C1)N(C1CCN(c4ccc(C(=O)NC)nc4)CC1)C3)[nH]c2=O [Compound 383] | – | – | – | – | 100 to 1000 | –

Continued, in another order:

Kd ([1]; PARP2 probe displacement HTRF) [nM] | Kd ([2]; read-out: PARP1 HTRF) [nM] | IC50 [3] [nM] | Kd ([2]; PARP1 HTRF) [nM] | Kd ([1]; probe displacement HTRF) [nM] | SMILES | Selectivity [2]
100 to 1000 | 10 to 100 | – | – | – | CNC(=O)c1ccc(N2CCC(N3CCCC(c4nc5ccccc5c(=O)[nH]4)C3)CC2)cc1 (single isomer, unassigned) [Compound 82a] | − (− indicates a value of less than 10)
– | – | 1000 to 10000 | – | – | CCc1cnc(C2CCCN(C3CCC(F)(F)CC3)C2)[nH]c1=O (single isomer, unassigned) [Compound 24b] | –
100 to 1000 | 100 to 1000 | – | – | – | CNC(=O)c1ccc(N2CCC(N3CCC(c4nc5ccccc5c(=O)[nH]4)C3)CC2)cc1 (single isomer, unassigned) [Compound 80b] | − (− indicates a value of less than 10)
100 to 1000 | 10 to 100 | – | – | – | N#Cc1ccc(N2CCC(N3CCCC(c4nc5ccccc5c(=O)[nH]4)C3)CC2)cc1 (single isomer, unassigned) [Compound 79b] | + (+ indicates a value of 10 to less than 50)
> 10000 | – | – | 1000 to 10000 | – | CNC(=O)c1ccc(N2CCC(CN3CCC(c4ncc(C(F)(F)F)c(=O)[nH]4)CC3)CC2)cn1 [Compound 75] | − (− indicates a value of less than 10)
> 10000 | 100 to 1000 | – | – | – | CNC(=O)c1ccc(N2CCC(N3CCC(c4nc5ccncc5c(=O)[nH]4)C3)CC2)cn1 (single isomer, unassigned) [Compound 81a] | + (+ indicates a value of 10 to less than 50)
1000 to 10000 | < 10 | – | – | – | CNC(=O)c1ccc(N2CCC(N3CCCC(c4nc5ccc(F)cc5c(=O)[nH]4)C3)CC2)cn1 (single isomer, unassigned) [Compound 78a] | +++ (+++ indicate a value of at least 100)
100 to 1000 | 10 to 100 | – | – | – | N#Cc1ccc(N2CCC(N3CCCC(c4nc5ccccc5c(=O)[nH]4)C3)CC2)cc1 (single isomer, unassigned) [Compound 79a] | + (+ indicates a value of 10 to less than 50)
100 to 1000 | 10 to 100 | – | – | – | CNC(=O)c1ccc(N2CCC(N3CCCC(c4nc5ccc(F)cc5c(=O)[nH]4)C3)CC2)cn1 (single isomer, unassigned) [Compound 78b] | + (+ indicates a value of 10 to less than 50)
> 10000 | 100 to 1000 | – | – | – | CNC(=O)c1ccc(N2CCC(N3CCC4CC4(c4nc5ccccc5c(=O)[nH]4)C3)CC2)cn1 (single isomer, unassigned) [Compound 90a] | + (+ indicates a value of 10 to less than 50)
100 to 1000 | 10 to 100 | – | – | – | CNC(=O)c1ccc(N2CCC(N3CCC(c4nc5cccc(Cl)c5c(=O)[nH]4)C3)CC2)cn1 (single isomer, unassigned) [Compound 85a] | + (+ indicates a value of 10 to less than 50)
> 10000 | 100 to 1000 | – | – | – | CNC(=O)c1ccc(N2CCC(N3CCCC(c4nc5ccccc5c(=O)[nH]4)C3)CC2)nc1 (single isomer, unassigned) [Compound 83b] | + (+ indicates a value of 10 to less than 50)
> 10000 | 100 to 1000 | – | – | – | CNC(=O)c1ccc(N2CCC(N3CCC(c4nc5onc(C(F)(F)F)c5c(=O)[nH]4)C3)CC2)cn1 (racemic) [Compound 176rac] | + (+ indicates a value of 10 to less than 50)
1000 to 10000 | 100 to 1000 | – | – | – | CNC(=O)c1ccc(N2CCC(N3CCC(c4nc5c(C(F)(F)F)cccc5c(=O)[nH]4)C3)CC2)cn1 (single isomer, unassigned) [Compound 178a] | − (− indicates a value of less than 10)
1000 to 10000 | 100 to 1000 | – | – | – | CNC(=O)c1ccc(N2CCC(N3CCC(c4nc5cc(Cl)ccc5c(=O)[nH]4)C3)CC2)cn1 (single isomer, unassigned) [Compound 87a] | + (+ indicates a value of 10 to less than 50)
> 10000 | 100 to 1000 | – | – | – | CNC(=O)c1ccc(N2CCC(N3CCCC(c4nc5cccnc5c(=O)[nH]4)C3)CC2)cn1 (single isomer, unassigned) [Compound 89b] | + (+ indicates a value of 10 to less than 50)
> 10000 | 10 to 100 | – | – | – | CNC(=O)c1ccc(N2CCC(N3CCC(c4nc5cccnc5c(=O)[nH]4)C3)CC2)cn1 (single isomer, unassigned) [Compound 77b] | +++ (+++ indicate a value of at least 100)
> 10000 | 1000 to 10000 | – | – | – | CNC(=O)c1ccc(N2CCC(N3CCC(c4nc5cnccc5c(=O)[nH]4)C3)CC2)cn1 (single isomer, unassigned) [Compound 84a] | − (− indicates a value of less than 10)
1000 to 10000 | < 10 | – | – | – | CNC(=O)c1ccc(N2CCC(N3CCC(c4nc5c(C(F)(F)F)cccc5c(=O)[nH]4)C3)CC2)cn1 (single isomer, unassigned) [Compound 178b] | +++ (+++ indicate a value of at least 100)
> 10000 | 10 to 100 | – | – | – | CNC(=O)c1ccc(N2CCC(N3CCC(c4nc5cnccc5c(=O)[nH]4)C3)CC2)cn1 (single isomer, unassigned) [Compound 84b] | ++ (++ indicates a value of 50 to less than 100)
100 to 1000 | < 10 | – | – | – | CNC(=O)c1ccc(N2CCC(N3CCC(c4nc5ccccc5c(=O)[nH]4)C3)CC2)cc1 (single isomer, unassigned) [Compound 80a] | +++ (+++ indicate a value of at least 100)
> 10000 | > 10000 | – | – | – | CNC(=O)c1ccc(N2CCC(N3CCCC(c4nc5cccnc5c(=O)[nH]4)C3)CC2)cn1 (single isomer, unassigned) [Compound 89a] | − (− indicates a value of less than 10)
< 10 | 10 to 100 | – | – | – | O=c1[nH]c(C2CCN(C3CCN(c4ccc(-c5ncc[nH]5)cc4)CC3)C2)nc2ccccc12 (single isomer, unassigned) [Compound 76b] | − (− indicates a value of less than 10)

— patent US20250152585A1, “PHARMACEUTICAL COMPOUND” (Duke Street Bio Limited, priority 2022, published 2025)
